Assay: log P, partitioning between octanol and water
Format: physicochemical
Conditions: octanol/water at 25° C.; usually determined with hexafluorophosphate as counterion
Procedure: To the skilled person, log P is a well known coefficient for describing the partitioning of a compound between octanol and water at ambient temperature (25° C.). Whereby P is the concentration of the bleach catalyst in octanol divided by the concentration of bleach catalyst in water. (Leo et al. Chem Rev 1971, 71, 525). The log P is usually determined in the presence of hexafluorophophate as the counterion.

| Compound | log P |
| --- | --- |
| CN1CCN(C)CCN(C)CC1.CN1CCN(C)CCN(C)CC1.F[P-](F)(F)(F)(F)F.F[P-](F)(F)(F)(F)F.[Mn+4].[Mn+4].[O-2].[O-2].[O-2] [Catalyst 1, Dimanganese-tris-μ-oxo-bis(1,4,7-trimethyl-1,4,7-triazacyclononane) bis(Hexafluorophosphate)] | less than 3 |
| Dimanganese-tris-μ-oxo-bis(2-octyl-1,4,7-trimethyl-1,4,7-triazacyclononane) bis(Hexasulphate) [Catalyst 2] | more than 3 |
